pEC50: −log10 of the molar value.
Tests used:
Format in all cases: cell-based, human
[1] = system: swim-up selected spermatozoa; assay: Forward motility of H2O2 treated swim-up selected spermatozoa; settings: for forward motility: n=12
Method: It is well known that reactive oxygen species (ROS), which may be generated during sperm preparation for IVF, exert detrimental effects on sperm fertilization potential. In particular, among ROS, H2O2 strongly reduces motility when added to sperm samples at micromolar concentrations. Therefore, the effect of LY294002 on H2O2 treated sperm cells was evaluated. The compound was added to swim-up selected spermatozoa samples from oligoasthenospermic patients in amounts of 10 µM either alone or in combination with 200 µM of H2O2. […]

spermatozoa [2] = assay: Computer aided sperm analysis (CASA) of sperm parameters; settings: 10 µM; 12 oligoasthenospermic subjects; vs control sample; Fig. 6
Method: These parameters were determined by computer aided sperm analysis (CASA) in sperm samples from 12 different oligoasthenospermic subjects.

spermatozoa [3] = assay: Sperm viability by eosin test and hypo-osmotic swelling; settings: 100 µM
Method: The effect of 100µM of LY294002 on the viability of the spermatozoa was also assessed (see insert of Fig. 3).

spermatozoa [4] = assay: Motility of spermatozoa in seminal liquid, evaluated blindly under the microscope (WHO manual)
Method: (§1) In the experiments the following examples are based on, standard methods of in vitro fertilization have been used. With regard to the details of these methods, reference is made to the "WHO manual" (WHO laboratory manual for the examination of human semen and sperm-cervical mucus interactions, 4th edtition, Cambridge University Press 1999). In particular, the direct swim-up method can be taken from pp. 104 to 106 of this manual.
Spermatozoa were prepared according to the standard procedures of IVF. Briefly, spermatozoa were prepared from 3 oligoasthenospermic subjects undergoing semen analysis for couple infertility after informed consent. 10 µM of the PI3K inhibitor LY294002 were added directly to the seminal liquid and incubated for 2 hours […] at 37°C and 5% CO2. The motility of the spermatozoa was then blindly evaluated under the microscope according to WHO manual procedures.
(§2) The compound was added in a concentration of 10 µM.

spermatozoa [5] = assay: Total sperm cell recovery in swim-up selection; settings: n=20
Method: as §1, §2
Table II summarizes the total sperm cell recovery in the swim-up, which was increased by 43% as compared to the control.

[6] = system: swim-up selected spermatozoa; assay: Forward motility of LiCl treated swim-up selected spermatozoa; settings: 10 µM, two hours, with or without different concentrations of LiCl; Fig. 7
From the text: LiCl is also a known inhibitor of sperm cell motility.

[7] = system: spermatozoa obtained by the swim-up method; assay: Motility of spermatozoa after incubation and swim-up selection
From the text: as §1, with “manual. […]” for “manual.”
Fig. 3 summarizes the results obtained in a similar experiment on samples from higher numbers of patients. The sperm cells were submitted to the swim-up selection method.
An improvement of percentage progressive motility after 2 hours of incubation of the sperm cells with LY294002 was clearly detectable, both on the rapid component (a) and on the rapid and slow component (a+b).
The experiments described above were performed on samples from oligoasthenospermic individuals. The effects on the stimulation of progressive motility by LY294002 are more pronounced the more serious the sperm pathology of patients is (oligospermia, asthenospermia, teratospermia). However, the effect of this compound could also be observed in normospermic subjects. […]

[8] = 10 µM, 2 hours of incubation, 12 individual patients, swim-up, Fig. 4

## OO [H2O2]
[1]; 200 µM H2O2 alone, oligoasthenospermic patients, control 45.4±5.0, P<0.0001 vs Control
  forward motility: 26.5±4.9 (n=12) %

## O=c1cc(N2CCOCC2)oc2c(-c3ccccc3)cccc12 [LY294002, 2-(4-morpholinyl)-8-phenyl-4H-1-benzopyran-4-one]
Spermatozoa [2]
  average path velocity (VAP): increased in a statistically significant manner
  hyperactivated sperm fraction (HA): increased in a statistically significant manner
  percentage curvilinear velocity (VCL): increased in a statistically significant manner
  straight-line velocity (VSL): increased in a statistically significant manner
[1]; 10 µM LY294002 added to the incubation medium
  detrimental effects exerted by 200 µM H2O2 on sperm motility: completely reversed
[1]; 10 µM LY294002 in combination with 200 µM H2O2, P<0.002 vs H2O2
  forward motility: 52.6±5.5 (n=12) %
[1]; 10 µM alone, oligoasthenospermic patients, control 45.4±5.0, P<0.0001 vs Control
  forward motility: 71.7±3.2 (n=12) %
Spermatozoa [3]; 48 hours of incubation (not shown)
  sperm viability: no effect on sperm viability
Spermatozoa [3]; incubation for two hours, eosin test and hypo-osmotic swelling
  vitality of the cells: did not alter the vitality
Spermatozoa [4]; 10 µM, 2 hours, 37°C, 5% CO2, 3 oligoasthenospermic subjects, Fig. 1
  rapid motility (a) of the spermatozoa in the seminal liquid: increase of rapid motility
Spermatozoa [4]; 10 µM, 2 hours, 37°C, 5% CO2, 3 oligoasthenospermic subjects, Fig. 1B
  percentage of forward motility (rapid and slow component a + b) in the seminal liquid: increase
Spermatozoa [4]; LY 10 µM added to seminal plasma, 20 oligoasthenospermic patients, control 35.7±5.1, p<0.001
  % Sperm Forward Motility, Sperm in Seminal Plasma: 49.8±4.7%
Spermatozoa [5]; 10 µM
  increase of total sperm cell recovery in the swim-up vs control: 43%
Spermatozoa [5]; LY 10 µM, control 13.3 ± 3.9, p<0.005
  Sperm recovery in swim up: 19.0 ± 4.8 10^6
[6]
  LiCl induced inhibition of sperm motility: reversing the effect
[7]; [8]
  percentage progressive motility, rapid and slow component (a+b): improvement
  percentage progressive motility, rapid component (a): improvement
[7]; 10 µM, two hours, then swim-up selection, 88 randomly selected subjects, control 53.5 ± 2.0 %
  forward motility of spermatozoa: 76.3 ± 1.5%
[7]; 100 µM compared with 10 µM, swim-up, Fig. 3
  additional enhancement of spermatozoa motility: about 10%
[7]; 100 µM, 2 hours, then swim-up selection, 7 samples, Fig. 2
  progressive motility: significant increase
[7]; Homo sapiens, Spermatozoa, 10 µM, 21 patients vs control 40 patients, swim-up, Fig. 3, read-out: increase in the progressive motility as compared to the control
  activation at 10 µM: 58%
[7]; Homo sapiens, Spermatozoa, 100 µM, 29 patients vs control 40 patients, swim-up, Fig. 3, read-out: increase of the motility as compared to the control
  activation at 100 µM: 67%
[7]; Homo sapiens, Spermatozoa, samples from normospermic individuals, 0 to 1000 µM, swim-up, Fig. 5, read-out: EC50 (effect dose of 50%) on the rapid forward motility
  pEC50: ~6.00
[7]; LY 10 µM added to seminal plasma, then swim-up, 20 oligoasthenospermic patients, control 54.2±4.5, p<0.001
  % Sperm Forward Motility, Swim up-selected sperm: 68.6±3.9%
